Measurements: ChEMBL document CHEMBL4184266, “Bacicyclin, a new antibacterial cyclic hexapeptide from Bacillus sp. strain BC028 isolated from Mytilus edulis” (Bioorg Med Chem Lett, 2018)
Values after ≈ are worked out from the molar mass of the structure shown. Blank lines part the entries; values can stand above or below the molecule they belong to. Active and inactive are the calls of the source. No cut-off for these calls is given here.

Key:
Enterococcus faecalis = experiment: Antibacterial activity against Enterococcus faecalis JH212 assessed as inhibition of bacterial growth incubated for 18 hrs by […]; format: functional; conditions: JH212, 18 h
Staphylococcus aureus = experiment: Antibacterial activity against Staphylococcus aureus NCTC 8325 assessed as inhibition of bacterial growth incubated for 18 hrs by […]; format: functional; conditions: NCTC 8325, 18 h
[1] = Cytotoxicity against mouse J774.1 cells incubated for 24 hrs and measured 48 and 72 hrs post dye addition by Alamar blue dye based assay; format: cell-based
Pseudomonas aeruginosa = experiment: Antibacterial activity against Pseudomonas aeruginosa isolate number 3 assessed as inhibition of bacterial growth incubated for 18 hrs by […]; format: functional, organism-based
[2] = tested on: Staphylococcus epidermidis; experiment: Antibacterial activity against Staphylococcus epidermidis RP62A assessed as inhibition of bacterial growth incubated for 18 hrs by […]; format: functional, organism-based
Enterococcus faecium = experiment: Antibacterial activity against Enterococcus faecium 6413 assessed as inhibition of bacterial growth incubated for 18 hrs by […]; format: functional, organism-based
Escherichia coli = experiment: Antibacterial activity against Escherichia coli 536 assessed as inhibition of bacterial growth incubated for 18 hrs by […]; format: functional, organism-based

MIC (Enterococcus faecalis): 5.24 µM (≈ 3.05 µg/mL) | MIC (Staphylococcus aureus): 2.09 µM (≈ 1.22 µg/mL)
SMILES: CN[C@@H]1[C@H](O[C@H]2[C@H](O[C@H]3[C@H](O)[C@@H](O)[C@H](N=C(N)N)[C@@H](O)[C@@H]3N=C(N)N)O[C@@H](C)[C@]2(O)C=O)O[C@@H](CO)[C@H](O)[C@H]1O [STREPTOMYCIN]

MIC (Enterococcus faecalis): 8 µM (≈ 4.81 µg/mL) | MIC (Staphylococcus aureus): 12 µM (≈ 7.21 µg/mL)
SMILES: CC[C@H](C)[C@@H]1NC(=O)[C@H](C(C)C)NC(=O)[C@H](CC(C)C)NC(=O)CNC(=O)[C@@H](Cc2ccccc2)NC(=O)[C@@H](C)NC1=O [listing 1 of 2 here]

SMILES: CC[C@H](C)[C@@H]1NC(=O)[C@H](C(C)C)NC(=O)[C@H](CC(C)C)NC(=O)CNC(=O)[C@@H](Cc2ccccc2)NC(=O)[C@@H](C)NC1=O [listing 2 of 2 here]
CC50 at 24 h [1]: > 200 µM

SMILES: CC[C@H](C)[C@@H]1NC(=O)[C@@H](C)NC(=O)[C@@H](Cc2ccccc2)NC(=O)CNC(=O)[C@H](CC(C)C)NC(=O)[C@H](C(C)C)NC1=O
growth inhibition (GI) (Pseudomonas aeruginosa): inactive | growth inhibition (GI) [2]: inactive | growth inhibition (GI) (Enterococcus faecium): inactive | growth inhibition (GI) (Escherichia coli): inactive
